Assay results from patent EP2070529B1, “Medical use of 3-(2,2,2-trimethylhydrazinium) propionate orotate” (Grindeks, a joint stock company, priority 2007, dated 2009).
Several values for one entry are separate records, joined by “and”; a condition that tells them apart may be missing. Identical values can stand only once. Marks after values point to notes of the source that are not given here.

What was measured:
isolated rat heart = assay: Isolated rat heart infarction model; type: in vivo, Wistar rats; conditions: by mouth for 14 days (Meldonium dihydrate 120 mg/kg, orotic acid 100mg/kg, Meldonium orotate 200 mg/kg), 60 minutes occlusion, 150 minute reperfusion
Experimental: Experiments were conducted on adult male Wistar rats with initial weight of 280-310g. During the experiment, the animals were kept in Standard crates in groups of 8. The feed was a standardized diet R70 (LABFOR, Lactamin AB, Sweden). The room temperature was kept at 21-23°C, relative humidity at 65±10%, 12 hour light/darkness cycle.
Rats weighing approximately 300 g were randomly divided in 4 groups. The first group received saline by mouth (control group), the second group 120 mg/kg Meldonium dihydrate, the third orotic acid 100mg/kg and the fourth group 200 mg/kg Meldonium orotate by mouth for 14 days.
Rats were anesthetized with sodium pentobarbital (60 mg/kg) and heparin (1 IU/g) was administrated concomitantly. Hearts were excised and retrogradely perfused via aorta at a constant pressure of 50 mm Hg, with oxygenated Krebs-Henseleit buffer ( content in mmol/L: NaCl 118, Ca Cl2 2.52, MgCl2 1.64, NaHCO3 24.88, KH2PO4 1.18, glucose 10.0, EDTA 0.05) pH 7.3-7.5 at 37°C.
A 5-0 polypropylene suture (Surgipro II, Syneture) was passed under the left anterior descending coronary artery and threaded through a small plastic tube to permit reversible occlusion of the coronart artery. Coronary flow was measured using an ultrasound flow detector (HSE) and PowerLab 8/30 system from ADlnstruments.
Hearts were adapted for 20 minutes and occlusion was performed for 60 minutes by constricting threads through a plastic tube.
At the end of the 150 minute reperfusion, the left anterior descending coronary artery was relegated and the risk zone was delineated with 0.1 % methylene blue solution in Krebs-Henseleit buffer infused via the aorta root. Hearts were sectioned transversely from the apex to the base of 2 mm thickness and incubated in 1 % triphenyl-tetrazolium chloride in phosphate buffer (pH 7.4, 37°C) for 10 minutes to stain viable tissue red and necrotic tissue white. […] Computerized planemetric analysis of photographs was performed using Image-Pro Plus 4.5.1 software to determine the area at risk (AR) and area of necrosis (AN) expressed as percentage of the left ventricle (LV). […]

rats = assay: Acute arrhythmia induced by calcium chloride, lethality; type: in vivo, Wistar rats; conditions: deaths/rats per group (8 rats), p.o. 14 days (Meldonium dihydrate 120 mg/kg, Meldonium orotate 204 mg/kg), last dose 24 h before, CaCl2 185 mg/kg, ECG until 10 minutes after
Experimental: Experiment was conducted on adult male Wistar rats. During the experiment, the animals were kept in Standard crates in groups of 8. The feed was a standardized diet R3 (LABFOR, Lactamin AB, Sweden). The room temperature was kept at 21-23°C, relative humidity at 65±10%, 12 hour light/darkness cycle. The experimental procedures were carried out in accordance with the guidelines of the European Community and local laws and policies and were approved by Latvian Animal Protection Ethical Committee, the Food and Veterinary Service.
An experimental acute arrhythmia was caused by introducing in rats solution of Calcium chloride.
Rats weighing 240-250 g randomized were divided into 3 groups, where in all groups there were 8 rats. During all 14 days rats got experimental preparations: Meldonium dihydrate or Meldonium orotate. The first group of 8 rats received drinking water (control group), the second group of 8 rats received Meldonium dihydrate (120 mg/kg p.o.) and the third group of 8 rats received Meldonium orotate (204 mg/kg p.o.). The last dose of experimental preparations animals got 24 h before the experiment. […] When narcosis started to influence to rat, there was cannulated left femoral vena for introducing of 10 % CaCl2 and after that there was connected ECG's recoding device (ADlnstrument PowerLab systems) and read ECG from the II lead. […]

| SMILES | Infarct size, % of control (isolated rat heart; IS = AN/AR x 100, dihydrate) | Fatal outcome (rats; dihydrate) | Infarct size, % of control (isolated rat heart; IS = AN/AR x 100) | Fatal outcome (rats) |
| --- | --- | --- | --- | --- |
| C[N+](C)(C)NCCC(=O)[O-] [Meldonium dihydrate, 3-(2,2,2-Trimethylhydrazinium) propionate dihydrate] | 76.9±5.9 % of control | 2/8 |  |  |
| C[N+](C)(C)NCCC(=O)[O-] [Meldonium orotate, 3-(2,2,2-trimethylhydrazinium) propionate orotate] |  |  | 49.1±6.1***^,#,& % of control | no lethal cases and 0/8 |
| O=C(O)c1cc(=O)[nH]c(=O)[nH]1 [Orotic acid] |  |  | 75.0±7.7 % of control |  |
